Results from US20200289611A1, “Methods and Compositions for the Inhibition of Quorum Sensing in Bacterial Infections” (priority 2016, published 2020).
Entries after “also recorded” stand apart in the source; their conditions may differ. Where two headings read alike, the source gives them in different places.

How the values were obtained:
[1] = tested on: agr activation of LAC agr-P3 lux; assay: Measurement of quorum quenching in vivo (agr-P3 lux reporter strain); parameters: species or system mice
Procedure: Inoculum preparation for assessing quorum quenching in vivo: An LAC reporter strain engineered to couple agr activation with bioluminescence, agr-P3 lux (AH2759) was grown in TSB medium+chloramphenicol, overnight at 37° C. in a shaking incubator set to 200 rpm. Overnight cultures were diluted 1:100 TSB+chloramphenicol and subcultured to an optical density of 0.1 at 600 nm hr). Bacterial cells were the pelleted and resuspended in sterile saline. […] Using the image analysis tools in living image software, circular analysis windows (of uniform area) were overlaid onto abdominal regions of interest (as depicted in FIG. 8e) and the corresponding bioluminescence values (total flux) were measured and plotted vs. time after infection.
To this end, mice with an agr-P3 lux reporter strain were challenged and carefully monitored the kinetics of agr activation over a six-hour period immediately following infection.

[2] = tested on: CXCL-2 and G-CSF in lesional tissue; assay: Cytokine measurements from tissue homogenates; type: in vivo, mice; settings: lesional tissue one day after infection
Procedure: Biopsy punches (4 mm), obtained from the center of skin ulcerations 1 day after infection, were homogenized with in sterile RPMI with proteinase inhibitor cocktail. The supernatants from these preparations were incubated with a multiplex bead array for IL-1β, G-CSF, KC (CXCL1), and CXCL2. Data were collected on a Luminex 200 (Luminex, Austin, Tex., USA) and analyzed with […]

[3] = tested on: polymorphonuclear neutrophils (PMN) at MRSA infected skin; assay: Flow cytometry of PMNs in infected skin; type: in vivo, mice
Procedure: For skin: abdominal skin ulcerations were excised and incubated in trypsin (0.6% in PBS) for 75 min at 37° C.; then cut into small pieces and incubated in Collagenase type II (0.5 mg/ml RPMI) for 90 min at 37° C. Skin cell suspensions were generated by serial passage of skin fragments through 18 and 20 gauge syringes. IN cell suspensions were generated mincing inguinal LNs with a razor blade before by serial passage of skin fragments through 18 and 20 gauge syringes. AU tissue preps were passed through a 70 am filter before immune cell staining. For whole blood: blood was collected, washed and resuspended in Tris-buffered ammonium chloride to lyse red blood cells.
For staining of skin, LN and whole blood preparations, the following antibodies: Anti-Ly6G (AI8), Anti-Ly6C (HK1.4), -CD11b (M1/70), CD45 (30-F11) were purchased from BioLegend. To block nonspecific binding, cells were incubated with rat anti-mouse CD16/32 FcγRIII/II (2.4G2) and vortexed prior to surface staining. In all experiments, LN or blood cells were collected on a FACS LSR using Cellquest software, and analyzed via FlowJo software. Dead cells were excluded by low forward-scatter and side-light scatter. Spectral overlaps between fluorochrome channels were corrected by automated compensation on singly stained, positive controls for each fluorochrome. In general, 50,000 cells were collected/tube. Flow cytometric analyses of agr-interference in bacterial cultures were conducted.

S. aureus LAC = assay: Bacterial growth (OD) in reporter time course; type: cell-based, Staphylococcus aureus
Procedure: (§1) Apicidin was tested for quorum quenching activity against all four agr types using P3-YFP reporter strains AH1677 (type I), AH430 (type II) AH1747 (type III), and AH1872 (type IV). (28) Overnight cultures of reporter strains that were grown in TSB supplemented with Cam were inoculated at a dilution of 1:250 into fresh TSB containing Cam. 100 μL, aliquots were added to 96-well microtiter plates containing 100 μL aliquots of TSB containing Cam and 2-fold serial dilutions of apicidin. Readings were recorded at 30 min increments using a Tecan Systems Infinite M200 plate reader.
Overnight cultures of agr strain types I, II, III, and IV were inoculated 1:500 into 5 ml of TSB (in 17×150 mm culture tubes) containing apicidin at concentrations of 100, 50, 25, 12.5, and 6.25 μg mL (28). All cultures were incubated at 37° C. with shaking (250 rpm), and growth was monitored by periodically transferring 100 μL of culture to a 96-well microtiter plate and reading OD600 in a Tecan Systems Infinite M200 plate reader. […] To quantify hemolytic activity, the filter sterilized culture supernatants from apicidin treated cultures were serially in TSB, and 50 μL aliquots were dispensed in quadruplicate into 96-well microtiter plates. […] Hemolysis was detected by the loss of turbidity as measured at OD630 using a Tecan Infinite M200 plate reader.

[4] = tested on: agr systems of Staphylococcus epidermidis isolates of each agr-type; assay: agr-P3 reporter strains of S. epidermidis; type: cell-based
[5] = tested on: AIP signal biosynthesis (AgrB/AgrD); assay: Mass spectrometric measurement of AIP production (agrBD in agr null LAC); type: cell-based, Staphylococcus aureus; settings: apicidin treated vs vehicle cultures
Procedure: (§2) To investigate the mechanisms by which apicidin inhibits quorum sensing, a series of in vitro assays were conducted to systematically assess the relative contribution of each of the core genetic elements of the agrBDCA operon (FIG. 13A). The membrane embedded peptidase AgrB, is responsible for processing the AgrD pro-peptide (immature AIP) for extracellular release. To determine if apicidin inhibits agr signaling at the level of AIP signal generation, an established system was used whereby the agrBD genes (under sarA P1 promoter regulation), were integrated into an agr null strain derived from the USA300 isolate LAC (40). This construct enables alterations to AIP signal biosynthesis to be clearly delineated from regulation stemming from signal integration. […] Next, the possibility that apicidin interferes with the sensory activity of AIP receptor AgrC was explored. For this, a R235H construct bearing a point mutation that confers constitutive AgrC activity, and thereby enables phospho-activation of AgrA to occur independently of AIP binding, was employed. […] Next, it was determined if AgrA serves as the target of apicidin. To this end, an agr null reporter construct, whereby agrP3 lux activation can only be achieved through the constitutive production of plasmid encoded AgrA […], was employed. […]

[6] = tested on: agr (P3-YFP reporter strains, agr types I-IV); assay: agr P3-YFP reporter quorum quenching assay; type: cell-based, Staphylococcus aureus
Procedure: as §1

AgrA = molecular target: T1, AgrA (Staphylococcus aureus, UniProt P0A0I7); assay: agr null agrP3 lux reporter with plasmid encoded AgrA; type: cell-based; settings: agr null strain
T1 construct: expressed in transfected cells; host or cells: agr null S. aureus agrP3-lux reporter strain
T1 sequence (P0A0I7 whole entry): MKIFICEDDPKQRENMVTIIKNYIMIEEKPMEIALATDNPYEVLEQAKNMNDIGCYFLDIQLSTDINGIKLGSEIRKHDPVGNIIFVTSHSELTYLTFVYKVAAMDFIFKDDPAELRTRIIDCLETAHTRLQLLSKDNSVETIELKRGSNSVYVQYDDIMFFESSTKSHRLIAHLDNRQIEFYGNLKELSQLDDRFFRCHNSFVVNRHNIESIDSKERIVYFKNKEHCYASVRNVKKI
Procedure: as §2

MRSA transcriptome (LAC) = assay: RNA-seq of WT LAC cultures; type: cell-based, Staphylococcus aureus
Procedure: Cultures of LAC and LAC ? agr were grown in TSB with DMSO alone or 100 µM apicidin (diluted in neat DMSO). All four cultures were grown to optical density of 1.4 at 600 nm, and the RNA was purified. The samples were subjected to DNase treatment and sample was quality was affirmed via Bioanalyzer (Agilent). […] was depleted with a Ribo-Zero rRNA Removal Kit from gram positive bacteria (Illumina). cDNA libraries were generated at the University of Iowa Genomics Division using the TruSeq Stranded mRNA Library Prep kit (Illumina). Sample were barcoded, pooled and sequenced in a 100×100 pared end reads using HiSeq_FPR3757 genome sequence using SeqMan NGen (DNASTAR) and the alignment were analyzed using ArrayStar (DNASTAR).
To evaluate the impact of apicidin upon global transcriptional regulation RNA-seq analysis upon WT LAC cultures grown in the presence of apicidin or vehicle was conducted. For purposes of comparing the effects of apicidin upon the MRSA transcriptome with those resulting from agr deletion, parallel RNA seq-analysis of WT and Δagr preparations were performed. A four-fold cutoff as the threshold for differential gene expression was used, and apicidin altered the expression of thirty transcripts, with >50% of these representing prototypical agr targets such hla, RNAIII, psms, and spl genes (FIG. 10).

MRSA (USA300 LAC) = assay: Intradermal MRSA skin infection model; type: in vivo, mice (C57BL/6 and BALB/c); settings: for cutaneous bacterial burden: Lux+ MRSA bioluminescence (IVIS)
Procedure: At D0, age, strain and sex matched mice were anesthetized with isoflurane, abdominal skin was carefully shaved and exposed skin was cleansed by wiping with an alcohol prep pad. For inoculum preparation, a USA 300 MRSA strain (AH1263), its deletion mutant, LAC strains engineered for constitutive bioluminescence via lux operon insertion (AH3700) or the Lux+ LAC engineered to constitutively express red fluorescent protein (AH 3868), green fluorescent protein (AH3669) were grown to mid-log-phase, pelleted and resuspended in DPBS to achieve 50 μl inoculum mixtures that contained either 2×10^7 CFUs+/−5 μg apicidin (diluted in neat DMSO). Apicidin or DMSO containing inoculums were injected intradermally into abdominal skin. Baseline body weights of mice were measured before infection and every day thereafter for a period of 7 days. For determination of lesion size, digital photos of skin lesions were taken daily and analyzed via ImageJ software.
The potent in vitro activity of apicidin encouraged an assessment of its efficacy in vivo. To this end, an intradermal challenge model was employed by delivering a single 5 μg dose of apicidin along as part of the inoculum suspension containing 2×10^7 MRSA organisms.

AgrC = assay: Constitutive AgrC mutant (R235H) assays; type: cell-based, Staphylococcus aureus
Procedure: as §2

CCC(=O)CCCCC[C@@H]1NC(=O)[C@H]2CCCCN2C(=O)[C@H](C(C)CC)NC(=O)[C@H](Cc2cn(OC)c3ccccc23)NC1=O (stereo partly drawn) [apicidin]
skin ulcers after agr-P3 lux reporter strain challenge ([1]; 14-day period): dramatic reduction in dermatopathology | agr activation in vivo ([1]; agr-P3 lux reporter, 5 ug apicidin, first hours after infection): reduced quorum sensing activity in vivo; also recorded: significant interference of agr activation in vivo; also recorded: high level of agr interference | production of CXCL-2 [2]: decrease | production of G-CSF [2]: decrease | PMN density / accumulation at infected skin ([3]; 24 hours post infection): enhanced; also recorded: increased the density of PMNs within infected wounds; also recorded: augmenting their accumulation | frequency of PMN able to phagocytose MRSA ([3]; DsRed+ MRSA): Though not significantly, a trend showing increased frequency | number of PMNs that phagocytosed MRSA ([3]; lesional skin preparations): increased; also recorded: overall enhancement MRSA uptake within the entire network of cutaneous PMNs | frequency of apoptotic PMNs ([3]; lesional skin, one day after infection): decrease in the frequency of apoptotic PMNs | growth inhibition / bactericidal effect (S. aureus LAC): non-bactericidal; also recorded: minimal growth inhibition | quorum quenching in S. epidermidis [4]: extend to multiple staphylococcal species | quorum quenching in S. epidermidis ([4]; listed as Apicidin): quorum sensing inhibition across S. epidermidis agr types | effect on AIP production [5]: does not target AIP signal biosynthesis; also recorded: does not alter the release of AIP signals | agr inhibition relative to its analogues [6]: showed the most impressive actions as an agr inhibitor | MICs for quorum sensing inhibition ([6]; across S. aureus isolates): low micromolar | agr-type dependence of quorum quenching potency ([6]; agr P3 driven YFP expression, time course): types II and IV representing the most sensitive and resistant respectively | inhibition of quorum sensing (agr P3 reporter) ([6]; agr types I-IV reporter strains): inhibited quorum sensing activity across S. aureus isolates; also recorded: inhibition extends to all 4 agr types; also recorded: inhibited the quorum sensing responses of multiple agr types | IC50 of agr-inhibition ([6]; all agr types): μM concentrations that were sub-inhibitory for growth | inhibition of AgrA-dependent agr-P3 reporter activation (AgrA): dose dependent inhibition of agr-P3 driven bioluminescence; also recorded: inhibited agr-P3 reporter activation | transcriptional signature (MRSA transcriptome (LAC)): narrowly focused upon the agr virulon; also recorded: largely confined to agr-regulated transcripts | number of transcripts with altered expression (MRSA transcriptome (LAC); 100 uM apicidin, four-fold cutoff): thirty | share of altered transcripts that are prototypical agr targets (MRSA transcriptome (LAC); four-fold cutoff): > 50% | cutaneous bacterial burden (MRSA (USA300 LAC)): reduced; also recorded: decrease in bacterial burden was observed throughout the experiment | cutaneous bacterial burden (MRSA (USA300 LAC); listed as Apicidin): reduced cutaneous bacterial burden | CFUs recovered from lesional skin (MRSA (USA300 LAC); one day after infection): significantly fewer CFUs were recovered | skin lesion / dermatopathology (MRSA (USA300 LAC); single 5 ug dose with 2x107 MRSA, intradermal, 14 days): significantly reduced MRSA-induced dermatopathology | quorum quenching in agr-P3 reporter strain with constitutive AgrC activity (AgrC): maintenance of potent quorum quenching activity | inhibition of lytic activity, constitutive AgrC mutant (AgrC; RBC lysis, R235H strain): dose dependent inhibition of lytic activity
